Assay results published in US11912686B2 (Gilead Sciences, Inc., priority 2020, dated 2024).

Molecular target: human LPAR1 (Homo sapiens (Human), UniProt Q92633)
Test: LPAR1 intracellular calcium mobilization assay (antagonist mode, FLIPR)
Type: cell-based
Details: CHO-K1 EDG2 cells expressing human LPAR1, LPA 18:2 at EC80 (100 nM), test compound 0.5 nM to 10 μM

Sequence of human LPAR1 (Q92633 whole entry): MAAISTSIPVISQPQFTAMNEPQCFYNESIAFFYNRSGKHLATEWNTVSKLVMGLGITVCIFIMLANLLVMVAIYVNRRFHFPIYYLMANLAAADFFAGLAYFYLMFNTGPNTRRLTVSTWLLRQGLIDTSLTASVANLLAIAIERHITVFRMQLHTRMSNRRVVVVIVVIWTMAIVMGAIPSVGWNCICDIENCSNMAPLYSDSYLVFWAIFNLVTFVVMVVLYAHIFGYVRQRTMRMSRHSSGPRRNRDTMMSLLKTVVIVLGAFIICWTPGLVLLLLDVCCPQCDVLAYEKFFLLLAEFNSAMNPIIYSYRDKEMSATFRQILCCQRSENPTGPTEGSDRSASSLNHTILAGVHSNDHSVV

Row | SMILES | EC50
1 | C[C@@H](OC(=O)Nc1c(-c2ccc(NC(=O)C3(C#N)CC(F)(F)C3)cn2)nnn1C)c1cccnc1Cl [Compound 186, (R)-1-(2-chloropyridin-3-yl)ethyl (4-(5-(1-cyano-3,3-difluorocyclobutane-1-carboxamido)pyridin-2-yl)-1-methyl-1H-1,2,3-triazol-5-yl)carbamate] | 100 nM
2 | CNC(=O)Nc1ccc(-c2nnn(C)c2NC(=O)O[C@H](CF)c2cccc(F)c2)nc1 [Compound 187, (S)-2-fluoro-1-(3-fluorophenyl)ethyl (1-methyl-4-(5-(3-methylureido)pyridin-2-yl)-1H-1,2,3-triazol-5-yl)carbamate] | 1240 nM
3 | C[C@@H](OC(=O)Nc1c(-c2ccc(NC(=O)N3CCC3)cn2)nnn1C)c1cccnc1Cl [Compound 188, (R)-1-(2-chloropyridin-3-yl)ethyl (4-(5-(azetidine-1-carboxamido)pyridin-2-yl)-1-methyl-1H-1,2,3-triazol-5-yl)carbamate] | 452 nM
4 | C[C@@H]1CCN(C(=O)Nc2ccc(-c3nnn(C)c3NC(=O)O[C@H](C)c3cccnc3Cl)nc2)C1 [Compound 190, (R)-1-(2-chloropyridin-3-yl)ethyl (1-methyl-4-(5-((R)-3-methylpyrrolidine-1-carboxamido)pyridin-2-yl)-1H-1,2,3-triazol-5-yl)carbamate] | 359 nM
5 | C[C@@H](OC(=O)Nc1c(-c2ccc(NC(=O)N3CC(C#N)C3)cn2)nnn1C)c1cccnc1Cl [Compound 191, (R)-1-(2-chloropyridin-3-yl)ethyl (4-(5-(3-cyanoazetidine-1-carboxamido)pyridin-2-yl)-1-methyl-1H-1,2,3-triazol-5-yl)carbamate] | 620 nM
6 | C[C@@H]1CCCN1C(=O)Nc1ccc(-c2nnn(C)c2NC(=O)O[C@H](C)c2cccnc2Cl)nc1 [Compound 192, (R)-1-(2-chloropyridin-3-yl)ethyl (1-methyl-4-(5-((R)-2-methylpyrrolidine-1-carboxamido)pyridin-2-yl)-1H-1,2,3-triazol-5-yl)carbamate] | 10000 nM
7 | C[C@@H](OC(=O)Nc1c(-c2ccc(NC(=O)N3CCC(F)(F)C3)cn2)nnn1C)c1cccnc1Cl [Compound 193, (R)-1-(2-chloropyridin-3-yl)ethyl (4-(5-(3,3-difluoropyrrolidine-1-carboxamido)pyridin-2-yl)-1-methyl-1H-1,2,3-triazol-5-yl)carbamate] | 287 nM
8 | C[C@@H](OC(=O)Nc1c(-c2ccc(NC(=O)N3CCCC3)cn2)nnn1C)c1cccnc1Cl [Compound 194, (R)-1-(2-chloropyridin-3-yl)ethyl (1-methyl-4-(5-(pyrrolidine-1-carboxamido)pyridin-2-yl)-1H-1,2,3-triazol-5-yl)carbamate] | 832 nM
9 | C[C@@H](OC(=O)Nc1c(-c2ccc(NC(=O)[C@H]3CNC(=O)C3)cn2)nnn1C)c1cccnc1Cl [Compound 195, (R)-1-(2-chloropyridin-3-yl)ethyl (1-methyl-4-(5-((R)-5-oxopyrrolidine-3-carboxamido)pyridin-2-yl)-1H-1,2,3-triazol-5-yl)carbamate] | 1540 nM
10 | C[C@@H](OC(=O)Nc1c(-c2ccc(NC(=O)CC3OCCO3)cn2)nnn1C)c1cccnc1Cl [Compound 196, (R)-1-(2-chloropyridin-3-yl)ethyl (4-(5 (2-(1,3-dioxolan-2-yl)acetamido)pyridin-2-yl)-1-methyl-1H-1,2,3-triazol-5-yl)carbamate] | 1030 nM
11 | C[C@@H](OC(=O)Nc1c(-c2ccc(NC(=O)[C@@H]3C[C@H]3c3ccccc3)cn2)nnn1C)c1cccnc1Cl [Compound 197, (R)-1-(2-chloropyridin-3-yl)ethyl (1-methyl-4-(5-((1R,2R)-2-phenylcyclopropane-1-carboxamido)pyridin-2-yl)-1H-1,2,3-triazol-5-yl)carbamate] | 5.2 nM
12 | C[C@@H](OC(=O)Nc1c(-c2ccc(NC(=O)C3(c4cccnc4)CC(F)(F)C3)cn2)nnn1C)c1cccnc1Cl [Compound 198, (R)-1-(2-chloropyridin-3-yl)ethyl (4-(5-(3,3-difluoro-1-(pyridin-3-yl)cyclobutane-1-carboxamido)pyridin-2-yl)-1-methyl-1H-1,2,3-triazol-5-yl)carbamate] | 613 nM
13 | C[C@@H](OC(=O)Nc1c(-c2ccc(NC(=O)C3C(F)(F)C34CC4)cn2)nnn1C)c1cccnc1Cl (stereo partly drawn) [Compound 199, (R)-1-(2-chloropyridin-3-yl)ethyl (4-(5-(2,2-difluorospiro[2.2]pentane-1-carboxamido)pyridin-2-yl)-1-methyl-1H-1,2,3-triazol-5-yl)carbamate] | 65.7 nM
14 | C[C@@H](OC(=O)Nc1c(-c2ccc(NC(=O)C3(CO)CC(F)(F)C3)cn2)nnn1C)c1cccnc1Cl [Compound 200, (R)-1-(2-chloropyridin-3-yl)ethyl (4-(5-(3,3-difluoro-1-(hydroxymethyl)cyclobutane-1-carboxamido)pyridin-2-yl)-1-methyl-1H-1,2,3-triazol-5-yl)carbamate] | 94 nM
15 | C[C@@H](OC(=O)Nc1c(-c2ccc(NC(=O)[C@]3(C#N)C[C@H]3C(F)(F)F)cn2)nnn1C)c1cccnc1Cl [Compound 201, (R)-1-(2-chloropyridin-3-yl)ethyl (4-(5-((1R,2R)-1-cyano-2-(trifluoromethyl)cyclopropane-1-carboxamido)pyridin-2-yl)-1-methyl-1H-1,2,3-triazol-5-yl)carbamate] | 146 nM
16 | C[C@@H](OC(=O)Nc1c(-c2ccc(NC(=O)[C@@]3(C#N)C[C@@H]3C(F)(F)F)cn2)nnn1C)c1cccnc1Cl [Compound 202, (R)-1-(2-chloropyridin-3-yl)ethyl (4-(5-((1S,2S)-1-cyano-2-(trifluoromethyl)cyclopropane-1-carboxamido)pyridin-2-yl)-1-methyl-1H-1,2,3-triazol-5-yl)carbamate] | 5 nM
17 | C[C@H](C#N)C(=O)Nc1ccc(-c2nnn(C)c2NC(=O)O[C@H](C)c2cccnc2Cl)nc1 [Compound 203, (R)-1-(2-chloropyridin-3-yl)ethyl (4-(5-((R)-2-cyanopropanamido)pyridin-2-yl)-1-methyl-1H-1,2,3-triazol-5-yl)carbamate] | 94.8 nM
18 | C[C@@H](C#N)C(=O)Nc1ccc(-c2nnn(C)c2NC(=O)O[C@H](C)c2cccnc2Cl)nc1 [Compound 204, (R)-1-(2-chloropyridin-3-yl)ethyl (4-(5-((S)-2-cyanopropanamido)pyridin-2-yl)-1-methyl-1H-1,2,3-triazol-5-yl)carbamate] | 132 nM
19 | C[C@@H](OC(=O)Nc1c(-c2ccc(NC(=O)c3cnc(C(F)(F)F)nc3)cn2)nnn1C)c1cccnc1Cl [Compound 205, (R)-1-(2-chloropyridin-3-yl)ethyl (1-methyl-4-(5-(2-(trifluoromethyl)pyrimidine-5-carboxamido)pyridin-2-yl)-1H-1,2,3-triazol-5-yl)carbamate] | 8.3 nM
20 | C[C@@H](OC(=O)Nc1c(-c2ccc(NC(=O)c3cnc(C(F)F)nc3)cn2)nnn1C)c1cccnc1Cl [Compound 206, (R)-1-(2-chloropyridin-3-yl)ethyl (4-(5-(2-(difluoromethyl)pyrimidine-5-carboxamido)pyridin-2-yl)-1-methyl-1H-1,2,3-triazol-5-yl)carbamate] | 71.8 nM
21 | C[C@@H](OC(=O)Nc1c(-c2ccc(NC(=O)c3ccc(Cl)nc3)cn2)nnn1C)c1cc(F)cnc1F [Compound 212, (R)-1-(2,5-difluoropyridin-3-yl)ethyl (4-(5-(6-chloronicotinamido)pyridin-2-yl)-1-methyl-1H-1,2,3-triazol-5-yl)carbamate] | 56.4 nM
22 | C[C@@H](OC(=O)Nc1c(-c2ccc(NC(=O)c3ccnc(F)c3)cn2)nnn1C)c1cc(F)cnc1F [Compound 213, (R)-1-(2,5-difluoropyridin-3-yl)ethyl (4-(5-(2-fluoroisonicotinamido)pyridin-2-yl)-1-methyl-1H-1,2,3-triazol-5-yl)carbamate] | 175 nM
23 | C[C@@H](OC(=O)Nc1c(-c2ccc(NC(=O)C3(C(F)F)COC3)cn2)nnn1C)c1cc(F)cnc1F [Compound 214, (R)-1-(2,5-difluoropyridin-3-yl)ethyl (4-(5-(3-(difluoromethyl)oxetane-3-carboxamido)pyridin-2-yl)-1-methyl-1H-1,2,3-triazol-5-yl)carbamate] | 357 nM
24 | C[C@@H](OC(=O)Nc1c(-c2ccc(NC(=O)C34CC(S(C)(=O)=O)(C3)C4)cn2)nnn1C)c1cc(F)cnc1F [Compound 215, (R)-1-(2,5-difluoropyridin-3-yl)ethyl (1-methyl-4-(5-(3-(methylsulfonyl)bicyclo[1.1.1]pentane-1-carboxamido)pyridin-2-yl)-1H-1,2,3-triazol-5-yl)carbamate] | 2000 nM
25 | C[C@@H](OC(=O)Nc1c(-c2ccc(NC(=O)[C@@H]3C[C@H]3Cl)cn2)nnn1C)c1cc(F)cnc1F [Compound 218, (R)-1-(2,5-difluoropyridin-3-yl)ethyl (4 (5-((1S,2R)-2-chlorocyclopropane-1-carboxamido)pyridin-2-yl)-1-methyl-1H-1,2,3-triazol-5-yl)carbamate] | 24 nM
26 | C[C@@H](OC(=O)Nc1c(-c2ccc(NC(=O)c3cncc(C(F)F)c3)cn2)nnn1C)c1cc(F)cnc1F [Compound 219, (R)-1-(2,5-difluoropyridin-3-yl)ethyl (4-(5-(5-(difluoromethyl)nicotinamido)pyridin-2-yl)-1-methyl-1H-1,2,3-triazol-5-yl)carbamate] | 37.7 nM
27 | C[C@@H](OC(=O)Nc1c(-c2ccc(NC(=O)c3ccc(F)nc3)cn2)nnn1C)c1cc(F)cnc1F [Compound 220, (R)-1-(2,5-difluoropyridin-3-yl)ethyl (4-(5-(6-fluoronicotinamido)pyridin-2-yl)-1-methyl-1H-1,2,3-triazol-5-yl)carbamate] | 158 nM
28 | Cc1ccc(C(=O)Nc2ccc(-c3nnn(C)c3NC(=O)O[C@H](C)c3cc(F)cnc3F)nc2)cn1 [Compound 221, (R)-1-(2,5-difluoropyridin-3-yl)ethyl (1-methyl-4-(5-(6-methylnicotinamido)pyridin-2-yl)-1H-1,2,3-triazol-5-yl)carbamate] | 374 nM
29 | C[C@@H](OC(=O)Nc1c(-c2ccc(NC(=O)c3ccc(C(F)F)nc3)cn2)nnn1C)c1cc(F)cnc1F [Compound 222, (R)-1-(2,5-difluoropyridin-3-yl)ethyl (4-(5-(6-(difluoromethyl)nicotinamido)pyridin-2-yl)-1-methyl-1H-1,2,3-triazol-5-yl)carbamate] | 41.7 nM
